What was measured:
[1] = tested on: Mycobacterium tuberculosis Erdman (autoluminescent); assay: total FIC50 (Loewe) at 50% inhibition, three-drug combination (log2); higher = more antagonistic
Experimental: (§1)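 DiaMOND equipotent three-drug combination dose responses (10 doses, 1.5- or 2-fold spacing, centred on IC90) against autoluminescent M. tuberculosis Erdman in 8 in vitro models. Read-out is OD600, or luminescence for the intracellular and dormancy models, normalised to untreated wells. Hill-fit Einf, AUC25 and GRinf are potency metrics; FIC50 and FIC90 are total Loewe fractional inhibitory concentrations as log2 (negative = synergy).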

[2] = tested on: Mycobacterium tuberculosis Erdman (autoluminescent); assay: total FIC90 (Loewe) at 90% inhibition, three-drug combination (log2); higher = more antagonistic
Experimental: as §1

[3] = tested on: Mycobacterium tuberculosis Erdman (autoluminescent); assay: Einf, fitted maximum growth inhibition of three-drug combination (fraction); higher = stronger maximal inhibition
Experimental: as §1

[4] = tested on: Mycobacterium tuberculosis Erdman (autoluminescent); assay: AUC25, normalised area under dose response up to IC25 (three-drug combination) (fraction (0-1)); higher = more potent at low dose
Experimental: as §1

[5] = tested on: Mycobacterium tuberculosis Erdman (autoluminescent); assay: GRinf, maximum normalised growth rate inhibition (three-drug combination) (unitless (-1 to 1)); higher = less effect (negative = killing)
Experimental: as §1

[6] = in vitro model: acidic pH 5.7, time point: constant (~7 days, model-specific)
[7] = in vitro model: acidic pH 5.7, time point: terminal (~4-5 doublings, model-specific)
[8] = in vitro model: butyrate, time point: constant (~7 days, model-specific)
[9] = in vitro model: butyrate, time point: terminal (~4-5 doublings, model-specific)
[10] = in vitro model: cholesterol 0.05 mM, time point: constant (~7 days, model-specific)
[11] = in vitro model: cholesterol 0.05 mM, time point: terminal (~4-5 doublings, model-specific)
[12] = in vitro model: cholesterol-high 0.2 mM, time point: constant (~7 days, model-specific)
[13] = in vitro model: cholesterol-high 0.2 mM, time point: terminal (~4-5 doublings, model-specific)
[14] = in vitro model: dormancy (butyrate + nitrate, low O2), time point: constant (~7 days, model-specific)
[15] = in vitro model: dormancy (butyrate + nitrate, low O2), time point: terminal (~4-5 doublings, model-specific)
[16] = in vitro model: standard 7H9 glycerol, time point: constant = terminal
[17] = in vitro model: valerate, time point: constant (~7 days, model-specific)
[18] = in vitro model: valerate, time point: terminal (~4-5 doublings, model-specific)
[19] = in vitro model: intracellular J774, time point: constant = terminal

`CC(C)/N=c1\cc2n(-c3ccc(Cl)cc3)c3ccccc3nc-2cc1Nc1ccc(Cl)cc1` [clofazimine] + COc1c(N2C[C@@H]3CCCN[C@@H]3C2)c(F)cc2c(=O)c(C(=O)O)cn(C3CC3)c12 [moxifloxacin] + CO[C@H]1/C=C/O[C@@]2(C)Oc3c(C)c(O)c4c(O)c(c(/C=N/N5CCN(C)CC5)c(O)c4c3C2=O)NC(=O)/C(C)=C\C=C\[C@H](C)[C@H](O)[C@@H](C)[C@@H](O)[C@@H](C)[C@H](OC(C)=O)[C@@H]1C [rifampicin] was tested, and the “total FIC50” value [1, 6] was 0.584, the “total FIC50” value [1, 7] was 0.552 and the “total FIC50” value [1, 8] was 0.632. For the same molecule, the “total FIC50” value [1, 9] was 0.441, the “total FIC50” value [1, 10] was 1.52 and the “total FIC50” value [1, 11] was 1.22. For the same molecule, the “total FIC50” value [1, 12] was 1.08, the “total FIC50” value [1, 13] was 1.33 and the “total FIC50” value [1, 14] was 0.282. For the same molecule, the “total FIC50” value [1, 15] was -0.142, the “total FIC50” value [1, 16] was -0.17 and the “total FIC50” value [1, 17] was 1.12. The “total FIC50” value [1, 18] was 0.91, the “total FIC90” value [2, 7] was 0.413 and the “total FIC90” value [2, 8] was 0.476. For the same molecule, the “total FIC90” value [2, 9] was 0.673, the “total FIC90” value [2, 11] was -0.407 and the “total FIC90” value [2, 12] was 1.19. For the same molecule, the “total FIC90” value [2, 13] was 1.21, the “total FIC90” value [2, 14] was -0.619 and the “total FIC90” value [2, 15] was 1.27. The “total FIC90” value [2, 19] was 0.881, the “total FIC90” value [2, 18] was 1.97 and the Einf [3, 6] was 0.794. The Einf [3, 7] was 0.984, the Einf [3, 8] was 0.961 and the Einf [3, 9] was 0.979. For the same molecule, the Einf [3, 10] was 0.622, the Einf [3, 11] was 0.89 and the Einf [3, 12] was 0.887. For the same molecule, the Einf [3, 13] was 1, the Einf [3, 14] was 0.924 and the Einf [3, 15] was 0.991. For the same molecule, the Einf [3, 19] was 0.971, the Einf [3, 16] was 0.975 and the Einf [3, 17] was 0.907. For the same molecule, the Einf [3, 18] was 0.948, the AUC25 [4, 6] was 0.0543 and the AUC25 [4, 7] was 0.0718. The AUC25 [4, 8] was 0.118, the AUC25 [4, 9] was 0.0964 and the AUC25 [4, 10] was 0.111. For the same molecule, the AUC25 [4, 11] was 0.0951, the AUC25 [4, 12] was 0.119 and the AUC25 [4, 13] was 0.0965. For the same molecule, the AUC25 [4, 14] was 0.0851, the AUC25 [4, 15] was 0.108 and the AUC25 [4, 16] was 0.128. It also gave an AUC25 [4, 17] of 0.104, an AUC25 [4, 18] of 0.075 and a GRinf [5, 6] of 0.0586. It also gave a GRinf [5, 7] of -0.141, a GRinf [5, 8] of -0.195 and a GRinf [5, 9] of -0.129. The GRinf [5, 10] was 0.0422, the GRinf [5, 11] was -0.0588 and the GRinf [5, 12] was -0.695. The GRinf [5, 13] was -1, the GRinf [5, 14] was 0.135 and the GRinf [5, 15] was -0.361. It also gave a GRinf [5, 19] of -0.31, a GRinf [5, 16] of -0.0863 and a GRinf [5, 17] of -0.0605. It also gave a GRinf [5, 18] of 0.0195.
With `COc1nc2ccc(Br)cc2cc1[C@@H](c1ccccc1)[C@@](O)(CCN(C)C)c1cccc2ccccc12` [bedaquiline] + CC(C)/N=c1\cc2n(-c3ccc(Cl)cc3)c3ccccc3nc-2cc1Nc1ccc(Cl)cc1 [clofazimine] + NNC(=O)c1ccncc1 [isoniazid] the “total FIC50” value [1, 6] was 0.675, the “total FIC50” value [1, 7] was 0.356 and the “total FIC50” value [1, 8] was -0.0224. For the same molecule, the “total FIC50” value [1, 9] was -0.00128, the “total FIC50” value [1, 10] was -0.55 and the “total FIC50” value [1, 11] was 0.444. The “total FIC50” value [1, 12] was 0.226, the “total FIC50” value [1, 13] was 0.648 and the “total FIC50” value [1, 14] was 0.0126. The “total FIC50” value [1, 15] was -0.283, the “total FIC50” value [1, 16] was -0.294 and the “total FIC50” value [1, 17] was 0.133. The “total FIC50” value [1, 18] was 0.246, the “total FIC90” value [2, 7] was 0.616 and the “total FIC90” value [2, 8] was -0.194. For the same molecule, the “total FIC90” value [2, 9] was -0.306, the “total FIC90” value [2, 11] was -0.22 and the “total FIC90” value [2, 12] was 0.206. For the same molecule, the “total FIC90” value [2, 13] was 0.259, the “total FIC90” value [2, 14] was -0.362 and the “total FIC90” value [2, 15] was -0.303. For the same molecule, the “total FIC90” value [2, 19] was -0.134, the “total FIC90” value [2, 16] was -0.677 and the “total FIC90” value [2, 17] was -0.379. The “total FIC90” value [2, 18] was 0.504, the Einf [3, 6] was 0.842 and the Einf [3, 7] was 0.969. It also gave an Einf [3, 8] of 0.945, an Einf [3, 9] of 0.979 and an Einf [3, 10] of 0.724. The Einf [3, 11] was 0.933, the Einf [3, 12] was 0.955 and the Einf [3, 13] was 1. For the same molecule, the Einf [3, 14] was 0.911, the Einf [3, 15] was 0.991 and the Einf [3, 19] was 0.96. For the same molecule, the Einf [3, 16] was 0.97, the Einf [3, 17] was 0.903 and the Einf [3, 18] was 0.948. It also gave an AUC25 [4, 6] of 0.11, an AUC25 [4, 7] of 0.09 and an AUC25 [4, 8] of 0.0622. It also gave an AUC25 [4, 9] of 0.0523, an AUC25 [4, 10] of 0.0812 and an AUC25 [4, 11] of 0.0932. For the same molecule, the AUC25 [4, 12] was 0.0765, the AUC25 [4, 13] was 0.0685 and the AUC25 [4, 14] was 0.0746. For the same molecule, the AUC25 [4, 15] was 0.0741, the AUC25 [4, 16] was 0.0945 and the AUC25 [4, 17] was 0.109. It also gave an AUC25 [4, 18] of 0.0654, a GRinf [5, 6] of -0.379 and a GRinf [5, 7] of -0.293. It also gave a GRinf [5, 8] of -0.1, a GRinf [5, 9] of -0.119 and a GRinf [5, 10] of -0.209. For the same molecule, the GRinf [5, 11] was -0.263, the GRinf [5, 12] was -0.396 and the GRinf [5, 13] was -0.54. It also gave a GRinf [5, 14] of 0.317, a GRinf [5, 15] of -0.0967 and a GRinf [5, 19] of -0.447. It also gave a GRinf [5, 16] of -0.0956, a GRinf [5, 17] of -0.0916 and a GRinf [5, 18] of -0.0502.
With `CC(C)/N=c1\cc2n(-c3ccc(Cl)cc3)c3ccccc3nc-2cc1Nc1ccc(Cl)cc1` [clofazimine] + CC(=O)NC[C@H]1CN(c2ccc(N3CCOCC3)c(F)c2)C(=O)O1 [linezolid] + CO[C@H]1/C=C/O[C@@]2(C)Oc3c(C)c(O)c4c(O)c(c(/C=N/N5CCN(C)CC5)c(O)c4c3C2=O)NC(=O)/C(C)=C\C=C\[C@H](C)[C@H](O)[C@@H](C)[C@@H](O)[C@@H](C)[C@H](OC(C)=O)[C@@H]1C [rifampicin] the “total FIC50” value [1, 6] was 0.38, the “total FIC50” value [1, 7] was 0.419 and the “total FIC50” value [1, 8] was 0.22. The “total FIC50” value [1, 9] was 0.26, the “total FIC50” value [1, 10] was -0.708 and the “total FIC50” value [1, 11] was 4.59. For the same molecule, the “total FIC50” value [1, 12] was 0.342, the “total FIC50” value [1, 13] was 0.34 and the “total FIC50” value [1, 14] was 1.29. For the same molecule, the “total FIC50” value [1, 15] was 0.408, the “total FIC50” value [1, 16] was 0.0668 and the “total FIC50” value [1, 17] was 0.928. For the same molecule, the “total FIC50” value [1, 18] was 0.756, the “total FIC90” value [2, 7] was 0.256 and the “total FIC90” value [2, 8] was 0.103. The “total FIC90” value [2, 9] was -0.0854, the “total FIC90” value [2, 11] was -0.0601 and the “total FIC90” value [2, 12] was 0.45. For the same molecule, the “total FIC90” value [2, 13] was 0.174, the “total FIC90” value [2, 14] was 0.832 and the “total FIC90” value [2, 15] was 0.6. For the same molecule, the “total FIC90” value [2, 19] was -0.471, the “total FIC90” value [2, 16] was 0.29 and the “total FIC90” value [2, 18] was 0.805. The Einf [3, 6] was 0.853, the Einf [3, 7] was 0.981 and the Einf [3, 8] was 0.922. The Einf [3, 9] was 0.95, the Einf [3, 10] was 0.687 and the Einf [3, 11] was 0.908. For the same molecule, the Einf [3, 12] was 0.963, the Einf [3, 13] was 0.995 and the Einf [3, 14] was 0.908. It also gave an Einf [3, 15] of 0.979, an Einf [3, 19] of 0.941 and an Einf [3, 16] of 0.917. It also gave an Einf [3, 17] of 0.885, an Einf [3, 18] of 0.942 and an AUC25 [4, 6] of 0.0866. It also gave an AUC25 [4, 7] of 0.0808, an AUC25 [4, 8] of 0.103 and an AUC25 [4, 9] of 0.07. For the same molecule, the AUC25 [4, 10] was 0.14, the AUC25 [4, 11] was 0.132 and the AUC25 [4, 12] was 0.13. The AUC25 [4, 13] was 0.107, the AUC25 [4, 14] was 0.0831 and the AUC25 [4, 15] was 0.0549. It also gave an AUC25 [4, 16] of 0.0962, an AUC25 [4, 17] of 0.0981 and an AUC25 [4, 18] of 0.058. It also gave a GRinf [5, 6] of -0.0709, a GRinf [5, 7] of -0.119 and a GRinf [5, 8] of -0.0328. The GRinf [5, 9] was 0.00888, the GRinf [5, 10] was 0.0599 and the GRinf [5, 11] was -0.188. For the same molecule, the GRinf [5, 12] was -0.755, the GRinf [5, 13] was -0.935 and the GRinf [5, 14] was 0.229. The GRinf [5, 15] was -0.148, the GRinf [5, 19] was -0.215 and the GRinf [5, 16] was 0.0708. It also gave a GRinf [5, 17] of -0.0893 and a GRinf [5, 18] of -0.0199.
